Measured values from US20100179225A1, “POI Prevention” (CYTOKINE PHARMASCIENCES, INC., priority 2008, published 2010).

Key:
IL-6 = assay: Serum IL-6 after small intestinal transplantation (ELISA); format: in vivo, Lewis rats; conditions: 1 mg/kg i.v.
Procedure: (§1) Syngeneic orthotopic small intestinal transplantation was performed in Lewis rats as previously described (Schwarz N T, Nakao A, Nalesnik M A, Kalff J C, Murase N, Bauer A J. Protective effects of ex vivo graft radiation and tacrolimus on syngeneic transplanted rat small bowel motility. Surgery 2002; 131: 413-423). […] Then the graft vascular bed was perfused with chilled UW solution (University of Wisconcin) and the intestinal lumen was irrigated with 50 ml cold 0.9% NaCl solution containing […]. neomycin sulfate (Uro Nebacetin N, Nycomed, Germany). The graft was stored in cold UW solution during the preparation of the recipient. An end-to-side anastomosis between the graft aorta and the recipient infra-renal aorta, and between the graft vein and recipient vena cava, was performed. Approximately 80% of the recipient intestine was removed and enteric continuity was restored by proximal and distal end-to-end intestinal anastomoses.
(§2) To investigate the effect of CPSI-2364 on postoperative small bowel ischemia/reperfusion injury and muscular function, CPSI-2364 (1 mg/kg bodyweight, solved in 2.5% mannitol) or vehicle (2.5% mannitol) were administered intravenously once to the donor and the recipient 90 minutes before the beginning of the organ retrieval operation as well as the transplantation procedure that was described above. […]

JNK/SAPK = conditions: v-myc immortalized spleen derived macrophage cell line; Lowenberg et al. J Immunol 2005; cited from earlier work
nitric oxide in serum = assay: Nitrite and nitrate in serum after small intestinal transplantation (Nitrate/Nitrite Colorimetric Assay kit); format: in vivo, Lewis rats; conditions: 1 mg/kg i.v.
Procedure: as §1, §2

SMILES: C/C(=N\NC(=N)N)c1cc(NC(=O)CCCCCCCCC(=O)Nc2cc(/C(C)=N/NC(=N)N)cc(/C(C)=N/NC(=N)N)c2)cc(/C(C)=N/NC(=N)N)c1 [Semapimod]
- release of IL-6 (serum) (IL-6; after 3 hours): 345 pg/mL
- release of IL-6 (serum) (IL-6; after 18 hours): 35 pg/mL
- JNK/SAPK phosphorylation (JNK/SAPK): reduce JNK/SAPK phosphorylation
- nitric oxide levels within the serum (nitric oxide in serum; 3 hours after reperfusion): 0.17 µmol/L
- nitric oxide levels within the serum (nitric oxide in serum; 18 hours after reperfusion): 1.69 µmol/L
